In general, EC50 refers to the concentration giving half of the maximal effect. Read a low EC50 as higher potency in that assay.

One assay addresses T1, GIP receptor (Homo sapiens, UniProt P48546).
T1 construct: expressed in transfected cells; host or cells: CHO cell line
T1 sequence (P48546 22-466): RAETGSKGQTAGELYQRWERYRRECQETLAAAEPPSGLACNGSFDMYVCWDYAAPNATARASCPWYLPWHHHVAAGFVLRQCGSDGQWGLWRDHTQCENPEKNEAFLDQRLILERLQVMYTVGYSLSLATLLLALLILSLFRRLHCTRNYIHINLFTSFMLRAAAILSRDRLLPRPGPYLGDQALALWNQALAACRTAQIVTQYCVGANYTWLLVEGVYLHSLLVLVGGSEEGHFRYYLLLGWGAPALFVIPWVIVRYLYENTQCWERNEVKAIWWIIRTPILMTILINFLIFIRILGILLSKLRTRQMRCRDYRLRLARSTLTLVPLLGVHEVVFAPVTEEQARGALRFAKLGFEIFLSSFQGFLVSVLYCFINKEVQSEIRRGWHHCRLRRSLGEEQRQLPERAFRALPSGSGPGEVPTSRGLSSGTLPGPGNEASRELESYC
The assay can be described thus: cAMP experiment, GIP receptor (CHO host cell line). Type of assay: cell-based. Particulars: CHO host cells.

The target in another assay is T2, GLP-1 receptor (Homo sapiens, UniProt P43220).
T2 construct: expressed in transfected cells; host or cells: HEK293 cell line
T2 sequence (P43220 24-463, species assumed): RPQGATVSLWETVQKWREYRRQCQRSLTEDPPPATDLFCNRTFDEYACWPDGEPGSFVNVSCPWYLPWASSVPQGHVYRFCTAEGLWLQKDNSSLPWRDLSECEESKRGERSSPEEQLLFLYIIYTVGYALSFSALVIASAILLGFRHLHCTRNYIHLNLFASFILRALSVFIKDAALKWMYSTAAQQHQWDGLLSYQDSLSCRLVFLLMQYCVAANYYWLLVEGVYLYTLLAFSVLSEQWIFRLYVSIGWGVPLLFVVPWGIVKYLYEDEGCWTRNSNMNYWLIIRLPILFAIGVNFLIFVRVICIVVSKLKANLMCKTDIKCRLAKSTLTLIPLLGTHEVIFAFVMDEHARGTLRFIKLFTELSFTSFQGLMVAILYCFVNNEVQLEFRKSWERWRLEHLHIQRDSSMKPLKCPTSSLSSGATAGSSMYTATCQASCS
The assay can be described thus: cAMP experiment, GLP-1 receptor (HEK293 host cell line). Particulars: HEK293 host cells. It counts as cell-based.

For `CC[C@H](C)[C@H](NC(=O)[C@H](CC(C)C)NC(=O)[C@H](Cc1c[nH]c2ccccc12)NC(=O)[C@H](CCC(N)=O)NC(=O)[C@@H](NC(=O)[C@H](Cc1ccccc1)NC(=O)[C@H](C)NC(=O)[C@H](CCCCN)NC(=O)[C@H](CCC(N)=O)NC(=O)[C@H](C)NC(=O)[C@@H](NC(=O)[C@H](CCCCNC(=O)COCCOCCOCCNC(=O)COCCOCCOCCNC(=O)CC[C@H](NC(=O)CCCCCCCCCCCCCCCCCCC(=O)O)C(=O)O)NC(=O)[C@H](CC(=O)O)NC(=O)[C@H](CC(C)C)NC(=O)C(C)(C)NC(=O)[C@@H](NC(=O)[C@H](CO)NC(=O)[C@H](Cc1ccc(O)cc1)NC(=O)[C@H](CC(=O)O)NC(=O)[C@H](CO)NC(=O)[C@@H](NC(=O)[C@H](Cc1ccccc1)NC(=O)[C@@H](NC(=O)CNC(=O)[C@H](CCC(=O)O)NC(=O)C(C)(C)NC(=O)[C@@H](N)Cc1ccc(O)cc1)[C@@H](C)O)[C@@H](C)O)[C@@H](C)CC)[C@@H](C)CC)C(C)C)C(=O)N[C@@H](C)C(=O)NCC(=O)NCC(=O)N1CCC[C@H]1C(=O)N[C@@H](CO)C(=O)N[C@@H](CO)C(=O)NCC(=O)N[C@@H](C)C(=O)N1CCC[C@H]1C(=O)N1CCC[C@H]1C(=O)N1CCC[C@H]1C(=O)N[C@@H](CO)C(N)=O` [BGM125, reference compound], the EC50 on GIP receptor was determined as 0.684 nM; on GLP-1 receptor, 0.0692 nM.
